Among the data in US7893063B2, “2,4,6-trisubstituted pyrimidines as phosphotidylinositol (PI) 3-kinase inhibitors and their use in the treatment of cancer” (AstraZeneca AB, priority 2004, dated 2011) are IC50 values, retold here.

For one experiment, the target named is T1, p110α Type Ia human PI3K (Homo sapiens, UniProt P42336).
T1 construct: full length DNA of each of the p110α, p110β and p110δ Type Ia human PI3K p110 isoforms; 6-His; made in house; Grp1 PH domain in E. coli
Kind of experiment: In vitro enzyme assay (AlphaScreen), Test (a). Format: biochemical. Particulars: recombinant enzyme, PI(4,5)P2 substrate, ATP 4 μM, read-out: IC50 versus p110α Type Ia human PI3K. An excerpt:
(a) In Vitro Enzyme Assay
The assay used AlphaScreen technology (Gray et al., Analytical Biochemistry, 2003, 313: 234-245) to determine the ability of test compounds to inhibit phosphorylation by recombinant Type I PI3K enzymes of the lipid PI(4,5)P2.
DNA fragments encoding human PI3K catalytic and regulatory subunits were isolated from cDNA libraries using standard molecular biology and PCR cloning techniques. The selected DNA fragments were used to generate baculovirus expression vectors. In particular, full length DNA of each of the p110α, p110β and p110δ Type Ia human PI3K p110 isoforms (EMBL Accession Nos. HSU79143, S67334, Y10055 for p110α, p110β and p110δ respectively) were sub-cloned into a pDEST10 vector (Invitrogen Limited, Fountain drive, Paisley, UK). The vector is a Gateway-adapted version of Fastbac1 containing a 6-His epitope tag. A truncated form of Type Ib human PI3K p110γ isoform corresponding to amino acid residues 144-1102 (EMBL Accession No. X8336A) and the full length human p85α regulatory subunit (EMBL Accession No. HSP13KIN) were also sub-cloned into pFastBac1 vector containing a 6-His epitope tag. The Type Ia p110 constructs were co-expressed with the p85α regulatory subunit. Following expression in the baculovirus system using standard baculovirus expression techniques, expressed proteins were purified using the His epitope tag using standard purification techniques.
DNA corresponding to amino acids 263 to 380 of human Grp1 PH domain was isolated from a cDNA library using standard molecular biology and PCR cloning techniques. The resultant DNA fragment was sub-cloned into a pGEX 4T1 E. coli expression vector containing a GST epitope tag (Amersham Pharmacia Biotech, Rainham, Essex, UK) as described by Gray et al., Analytical Biochemistry, 2003, 313: 234-245). The GST-tagged Grp1 PH domain was expressed and purified using standard techniques.
Test compounds were prepared as 10 mM stock solutions in DMSO and diluted into water as required to give a range of final assay concentrations. Aliquots (2 μl) of each compound dilution were placed into a well of a Greiner 384-well low volume (LV) white polystyrene plate (Greiner Bio-one, Brunel Way, Stonehouse, Gloucestershire, UK Catalogue No. 784075). […]
Biotinylated-DiC8-PI(3,4,5)P3 (50 nM; Cell Signals Inc., Catalogue No. 107), recombinant purified GST-Grp1 PH protein (2.5 nM) and AlphaScreen Anti-GST donor and acceptor beads (100 ng; Packard Bioscience Limited, Station Road, Pangbourne, Berkshire, UK, Catalogue No. 6760603M) were added and the assay plates were left for about 5 to 20 hours at ambient temperature in the dark. The resultant signals arising from laser light excitation at 680 nm were read using a Packard AlphaQuest instrument. […]
A general note: In Alpha technology, singlet oxygen from a donor bead excites a nearby acceptor bead.

The subject of experiment [1] is phosphorylation of Serine 473 in Akt. Briefly: In vitro phospho-Ser473 Akt assay, Test (b). Particulars: Homo sapiens, MDA-MB-468 cells, 2 hours incubation, read-out: IC50, inhibition of phosphorylation of Serine 473 in Akt. Format: cell-based. As to the method: (b) In Vitro Phospho-Ser473 Akt Assay
This assay determines the ability of test compounds to inhibit phosphorylation of Serine 473 in Akt as assessed using Acumen Explorer technology (Acumen Bioscience Limited), a plate reader that can be used to rapidly quantitate features of images generated by laser-scanning.
A MDA-MB-468 human breast adenocarcinoma cell line (LGC Promochem, Teddington, Middlesex, UK, Catalogue No. HTB-132) was routinely maintained at 37° C. with 5% CO2 up to a confluency of 70-90% in Dulbecco's modified Eagle's growth medium (DMEM; Invitrogen Limited, Paisley, UK Catalogue No. 41966-029) containing 10% heat-inactivated foetal calf serum (FCS; Sigma, Poole, Dorset, UK, Catalogue No. F0392) and 1% L-glutamine (Gibco, Catalogue No. 25030-024).
For the assay, the cells were detached from the culture flask using ‘Accutase’ (Innovative Cell Technologies Inc., San Diego, Calif., USA; Catalogue No. AT104) using standard tissue culture methods and resuspended in media to give 1.7×10^5 cells per ml. Aliquots (90 μl) were seeded into each of the inner 60 wells of a black Packard 96 well plate (PerkinElmer, Boston, Mass., USA; Catalogue No. 6005182) to give a density of ˜15000 cells per well. Aliquots (90 μl) of culture media were placed in the outer wells to prevent edge effects. The cells were incubated overnight at 37° C. with 5% CO2 to allow them to adhere.
On day 2, the cells were treated with test compounds and incubated for 2 hours at 37° C. with 5% CO2. Test compounds were prepared as 10 mM stock solutions in DMSO and serially diluted as required with growth media to give a range of concentrations that were 10-fold the required final test concentrations. Aliquots (10 μl) of each compound dilution were placed in a well (in triplicate) to give the final required concentrations. […]
All subsequent aspiration and wash steps were carried out using a Tecan 96 well plate washer (aspiration speed 10 mm/sec). […] An aliquot of PBS (50 μl) was added to each well and the plates were sealed with black plate sealers and the fluorescence signal was detected and analysed. […]

T1 sequence (P42336 whole entry, the tested form may be a part, canonical isoform): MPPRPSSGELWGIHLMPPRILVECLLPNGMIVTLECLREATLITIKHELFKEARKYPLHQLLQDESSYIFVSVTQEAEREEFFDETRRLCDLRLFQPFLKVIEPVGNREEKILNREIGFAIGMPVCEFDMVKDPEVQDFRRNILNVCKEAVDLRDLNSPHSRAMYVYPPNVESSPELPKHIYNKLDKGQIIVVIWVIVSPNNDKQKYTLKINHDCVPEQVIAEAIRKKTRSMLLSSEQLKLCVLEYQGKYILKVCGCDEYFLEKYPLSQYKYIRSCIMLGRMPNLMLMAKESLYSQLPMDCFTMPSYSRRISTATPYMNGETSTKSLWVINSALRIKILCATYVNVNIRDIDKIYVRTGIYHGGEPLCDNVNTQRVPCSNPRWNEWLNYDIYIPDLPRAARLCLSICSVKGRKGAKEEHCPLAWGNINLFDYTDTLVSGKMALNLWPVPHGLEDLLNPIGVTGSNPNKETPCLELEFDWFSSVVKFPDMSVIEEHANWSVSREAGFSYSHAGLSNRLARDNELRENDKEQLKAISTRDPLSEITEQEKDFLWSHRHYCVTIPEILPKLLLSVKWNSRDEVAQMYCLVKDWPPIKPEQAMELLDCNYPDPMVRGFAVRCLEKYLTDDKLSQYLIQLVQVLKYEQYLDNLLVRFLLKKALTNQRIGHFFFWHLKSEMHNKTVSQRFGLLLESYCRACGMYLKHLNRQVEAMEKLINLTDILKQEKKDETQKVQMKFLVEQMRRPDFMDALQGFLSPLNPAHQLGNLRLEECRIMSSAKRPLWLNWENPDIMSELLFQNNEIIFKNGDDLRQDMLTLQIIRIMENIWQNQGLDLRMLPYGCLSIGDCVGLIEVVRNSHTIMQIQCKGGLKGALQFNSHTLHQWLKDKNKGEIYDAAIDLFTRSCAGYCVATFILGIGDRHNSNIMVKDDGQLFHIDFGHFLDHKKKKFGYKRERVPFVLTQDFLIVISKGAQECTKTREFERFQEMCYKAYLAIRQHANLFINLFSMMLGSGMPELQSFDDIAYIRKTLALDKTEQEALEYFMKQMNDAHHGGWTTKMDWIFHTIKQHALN
T1 sequence (P27986 whole entry partner, the tested form may be a part, canonical isoform): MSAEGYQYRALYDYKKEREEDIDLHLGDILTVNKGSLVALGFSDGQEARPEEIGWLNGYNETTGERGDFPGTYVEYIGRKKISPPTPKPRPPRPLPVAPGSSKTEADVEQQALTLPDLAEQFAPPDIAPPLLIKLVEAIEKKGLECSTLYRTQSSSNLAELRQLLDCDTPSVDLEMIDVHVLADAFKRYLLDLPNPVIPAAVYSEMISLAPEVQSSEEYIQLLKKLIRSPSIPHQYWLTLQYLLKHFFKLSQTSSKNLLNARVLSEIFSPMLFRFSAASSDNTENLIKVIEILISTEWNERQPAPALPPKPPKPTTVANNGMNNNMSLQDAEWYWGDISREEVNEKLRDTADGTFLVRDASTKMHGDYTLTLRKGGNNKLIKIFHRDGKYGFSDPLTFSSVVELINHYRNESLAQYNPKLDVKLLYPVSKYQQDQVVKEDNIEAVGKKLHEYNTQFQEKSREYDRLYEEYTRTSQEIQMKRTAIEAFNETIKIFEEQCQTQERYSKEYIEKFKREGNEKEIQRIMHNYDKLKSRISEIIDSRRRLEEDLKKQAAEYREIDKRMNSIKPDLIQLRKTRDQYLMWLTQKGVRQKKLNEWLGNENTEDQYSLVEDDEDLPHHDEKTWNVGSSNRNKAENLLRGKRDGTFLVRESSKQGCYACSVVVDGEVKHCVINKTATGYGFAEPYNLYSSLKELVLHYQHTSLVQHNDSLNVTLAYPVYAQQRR

Consider `O=C(Nc1cccc(-c2nc(-c3ccc(CO)s3)cc(N3CCOCC3)n2)c1)C1CCNCC1` [Example 1, 4-(5-hydroxymethylthien-2-yl)-6-morpholino-2-(3-piperidin-4-ylcarbonylaminophenyl)pyrimidine], for which the concentration for half-maximal inhibition (IC50) was about 10 µM on p110α Type Ia human PI3K and about 50 µM in experiment [1].
The corresponding values for `COc1ncc(-c2cc(N3CCOCC3)nc(-c3cccc(NC(C)=O)c3)n2)cn1` [Example 2, 2-(3-acetamidophenyl)-4-(2-methoxypyrimidin-5-yl)-6-morpholinopyrimidine] are about 12 µM and about 28 µM.
On to `O=C(Nc1cccc(-c2cc(N3CCOCC3)nc(-c3ccc(CO)o3)n2)c1)C1CCCNC1` (stereo not shown) [Example 4, 2-(5-hydroxymethylfuran-2-yl)-6-morpholino-4-(3-piperidin-3-ylcarbonylaminophenyl)pyrimidine], for which the IC50 at p110α Type Ia human PI3K was about 0.6 µM.
Turning to `O=C(Nc1cccc(-c2nc(-c3ccc(CO)o3)cc(N3CCOCC3)n2)c1)C1CCNCC1` [Example 5, 4-(5-hydroxymethylfuran-2-yl)-6-morpholino-2-(3-piperidin-4-ylcarbonylaminophenyl)pyrimidine], the IC50 is about 0.5 µM on p110α Type Ia human PI3K and about 1 µM in experiment [1].

The term IC50 denotes the midpoint of a concentration-inhibition curve.
